These results are taken from patent US20120034193A1, “TREATMENT OF NEUROTROPHIC FACTOR MEDIATED DISORDERS” (priority 2009, published 2012).

In series [1] the test system is rat primary cortical neurones. Put plainly: ChAT positive neurones and neurite outgrowth after β-amyloid exposure. Particulars: 10 μM pre-incubation 48 h, then β-amyloid 10 μg/ml 48 h. Format: cell-based. The method, then:
Rat cortical neurones were cultured by modification of a method previously described (Eckenstein and Sofroniew, Journal of Neuroscience, 1983, 3, pp. 2286-2291). On day 8, the culture medium was changed to a medium containing vehicle (DMSO, 0.5%) or smilagenin or sarsasapogenin (10 μM). On day 10, rat primary cortical neurones were exposed to β-amyloid (10 μg/ml) for 48 h at 37° C. and the concentration of BDNF in the culture medium, the number of choline acetyltransferase (ChAT) positive cells, and the neurite outgrowth was measured (smilagenin only).

Series [2] concerns Rat sensory neurones. The series can be described thus: Neuronal survival in sensory neurones. The settings on record: 2 days. The series is classed as cell-based, Wistar rat. The protocol:
Rat sensory neurones were obtained from Wistar rat embryos on the 15th day of gestation. Cells were cultured at 37° C. in 5% CO2/95% air atmosphere. Following 2 days of culturing with sarsasapogenin, smilagenin, vehicle (DMSO, 0.25%) or NGF, sensory neurones were rinsed twice with PBS and fixed in paraformaldehyde (4%) in PBS for 30 min at 4° C. Cells were permeabilised with Triton X-100 (0.1%) and non-specific sites were saturated using foetal bovine serum. Prior to staining, cells were incubated for 2 h at room temperature with a mixture of primary antibodies: anti-neurofilament 68 and 200 in PBS containing foetal bovine serum 5%. Prior to washing, slides were demounted and the cells were washed twice with PBS for 5 min, placed in a dark room for 1 h and incubated with a secondary antibody: anti-mouse coupled with cyanine 3 (Cy3; 1/1600) and an anti-rabbit coupled with fluoroisothiocyanate (FITC; 1/200) in PBS containing foetal bovine serum (5%). Slides were washed twice with PBS for 5 min and mounted on coverslips using Mowiol, an antioxidative solution (9% w/v) in glycerol (22%) buffered with Tris/HCl ([…]; pH 8.5). Slides were left overnight at room temperature to harden and stored in light protected conditions. Slides were viewed using a DAPI/FITC/Cy3 triple filter microscope with a ×20 objective. A series of photographs per well were taken at random using a digital camera.

The subject of series [3] is rat primary cortical neurones. The series can be described thus: Inhibition of induced neurite outgrowth by K252a or PD98059. The series is classed as cell-based. The settings on record: 30 nM, 24 h. The protocol:
Cortical neurones were cultured as detailed above. Neurones were exposed to vehicle (DMSO, 0.25%) or K252a (100 nM) for 1 h. After 1 h, vehicle, sarsasapogenin, smilagenin (30 nM) or BDNF (1.85 nM) was added to the medium in the maintained presence of K252a. Following 24 h exposure to sarsasapogenin or smilagenin (30 nM), vehicle (DMSO, 0.25%) or BDNF (1.85 nM), the neurones were washed using phosphate-buffered saline (PBS) and fixed in glutaraldehyde (2.5%) in PBS. Photographs of 40-60 neurones expressing neurites were taken with a camera fixed on a microscope (objective ×20, Nikon). The neurite length was measured by an analysis of the photographs.
Cortical neurones were cultured as detailed above. Neurones were exposed to vehicle (DMSO, 0.25%) or PD98059 (10 μM) for 1 h. After 1 h, vehicle, smilagenin (30 nM) or BDNF (1.85 nM) was added to the medium in the maintained presence of PD98059. Following 24 h exposure to smilagenin (30 nM), vehicle (DMSO, 0.25%) or BDNF (1.85 nM), the neurones were washed using PBS and fixed in glutaraldehyde (2.5%) in PBS. Photographs of 40-60 neurones expressing neurites were taken with a camera fixed on a microscope (objective ×20, Nikon). The neurite length was measured by an analysis of the photographs.

Series [4] relates to rat primary cortical neurones. Put plainly: Pre-treatment against glutamate-induced damage (LDH) in cortical neurones. The series is classed as cell-based. The settings on record: for Neuronal survival (% of control): 24 h before and 24 h after glutamate 100 μM 10 min; for Toxicity at the plateau of activity: nanomolar concentration, cortical neurones in vitro. The method, then: Exposure of rat primary cortical neurones to glutamate increases lactate dehydrogenase (LDH) activity measured 24 h after glutamate exposure, indicating significant neuronal damage. Rat cortical neurones were cultured by modification of a method previously described (Singer, et al., Neuroscience Letters, 1996, 212, pp. 13-16). On day 10 of culture, the medium was changed to a serum-free defined medium. On day 12, the cultures were washed and placed for 24 h in fresh medium containing test compound or vehicle (DMSO, 0.25%). On day 13 neurones were exposed to glutamate (100 μM; 10 min) at 37° C. The cultures were then washed with, and placed in, fresh medium supplemented with test compound or vehicle for a further 24 h before LDH was measured. Neuronal damage was assessed by measuring LDH activity in the media at 24 h after glutamate exposure.

Series [5] relates to Rat cortical neurones. Put plainly: Reversal of glutamate-induced damage in cortical neurones. The series is classed as cell-based. The settings on record: 30 nM for 24 h after glutamate 100 μM 10 min. The protocol:
The rat cortical neurones were prepared as detailed above. On day 13, cultures were exposed to glutamate (100 μM) for 10 min at 37° C. in 5% CO2/95% air atmosphere in defined medium. Following the incubation period, the cultures were washed and maintained in fresh medium, containing sarsasapogenin, smilagenin or vehicle. Cells were cultured for a further 24 h after glutamate exposure and were then assessed for neuronal damage as detailed above.

Series [6] is described as follows: Long term oral toxicity study, non-rodents. The series is classed as in vivo. The settings on record: high doses.

`C[C@@H]1CC[C@@]2(OC1)O[C@H]1C[C@H]3[C@@H]4CC[C@@H]5C[C@@H](O)CC[C@]5(C)[C@H]4CC[C@]3(C)[C@H]1[C@@H]2C` [Smilagenin, smilagenin]: in series [1], the “Neurite outgrowth (% of control)” value is given as 85.8 ± 4.0 % of control. The “Number of ChAT positive neurones per field (% of control)” value in series [1] was 70.1 ± 9.6 % of control. Also, the “Neuronal survival (% of control)” value is reported as 124.02 ± 7.64 % of control in series [2] (300 nM); 81.53 ± 1.66 % of control in series [4] (1 nM); 78.19 ± 1.85 % of control in series [4] (3 nM); 82.50 ± 1.00 % of control in series [4] (10 nM); 89.86 ± 3.55 % of control in series [4] (30 nM); 82.45 ± 2.18 % of control in series [4] (100 nM). The “Neuronal survival (% of control)” value in series [5] is recorded as 111.06 ± 3.40 % of control. Besides, the “Neurite length (% of control)” value was 146.78 ± 6.75^++++ % of control in series [3] (no inhibitor), 94.36 ± 3.96 % of control in series [3] (with K252a (100 nM)) and 120.27 ± 5.80 % of control in series [3] (with PD98059 (10 μM)). Besides, the “Toxicity at the plateau of activity” value in series [4] is “without causing any toxicity”. Further, the Long term toxicity result in series [6] (up to 52 weeks in non-rodents) is “without showing any signs of toxicity or adverse events”.

Consider `C[C@H]1CC[C@@]2(OC1)O[C@H]1C[C@H]3[C@@H]4CC[C@@H]5C[C@@H](O)CC[C@]5(C)[C@H]4CC[C@]3(C)[C@H]1[C@@H]2C` [Sarsasapogenin, sarsasapogenin], for which the “Number of ChAT positive neurones per field (% of control)” value in series [1] was 71.6 ± 3.7 % of control. In addition, the “Neuronal survival (% of control)” value is reported as 130.83 ± 1.75 % of control in series [2] (30 nM); 76.88 ± 2.79 % of control in series [4] (1 nM); 77.23 ± 2.62 % of control in series [4] (3 nM); 73.50 ± 3.05 % of control in series [4] (10 nM); 78.91 ± 2.97 % of control in series [4] (30 nM); 76.30 ± 4.15 % of control in series [4] (100 nM). In series [5], the “Neuronal survival (% of control)” value was 103.43 ± 5.10 % of control. Also, the results for the “Neurite length (% of control)” value in series [3] (no inhibitor) and in series [3] (with K252a (100 nM)) were 126.74 ± 5.76^++++ % of control and 93.12 ± 2.88 % of control, respectively. Moreover, the “Toxicity at the plateau of activity” value in series [4] is recorded as “without causing any toxicity”. For the same compound, the Long term toxicity result in series [6] (39 weeks in non-rodents) was “without showing any signs of toxicity or adverse events”.
